A word on the Ki: it is the equilibrium dissociation constant of an inhibitor or competing ligand from its target. Higher therefore signals weaker binding.

In the assay the target is Carbonic anhydrase 9 (Homo sapiens, UniProt Q16790).
Description: Inhibition of human recombinant transmembrane tumor associated carbonic anhydrase-9 incubated for 15 mins prior to testing by stopped-flow CO2 hydrase assay
In turn, `NS(=O)(=O)c1ccc(-n2cc(-c3ccc(F)cc3)[nH]c2=S)cc1` showed a Ki of 37 nM.
Next, `NS(=O)(=O)c1ccc(N(/C=C/C(=O)C(F)(F)F)CC(=O)c2ccccc2)cc1`: 9.5 nM; `CCOC(=O)NC(=S)N(CC(=O)c1ccc(Cl)cc1)c1ccc(S(N)(=O)=O)cc1`: 25 nM.
`NS(=O)(=O)c1ccc(N(/C=C/C(=O)C(F)(F)F)CC(=O)c2ccc(Cl)cc2)cc1` returned a Ki of 17 nM.
Compound `NS(=O)(=O)c1ccc(N(/C=C/C(=O)C(F)(F)F)CC(=O)c2ccc(F)cc2)cc1` gave a Ki of 13 nM.
Next, `NS(=O)(=O)c1ccc(N(/C=C/C(=O)C(F)(F)F)Cc2ccc(Cl)cc2)cc1`: 33 nM; `NS(=O)(=O)c1ccc(-n2cc(-c3ccc(F)cc3)[nH]c2=O)cc1`: 25 nM; `NS(=O)(=O)c1ccc(N(/C=C/C(=O)C(F)(F)F)Cc2ccccc2)cc1`: 39 nM.
With `NS(=O)(=O)c1ccc(-n2cc(-c3ccccc3)[nH]c2=S)cc1` the figure was 13 nM; with `NS(=O)(=O)c1ccc(-n2cc(-c3ccccc3)[nH]c2=O)cc1`, 34 nM.
`Cc1ccc(C(=O)CN(/C=C/C(=O)C(F)(F)F)c2ccc(S(N)(=O)=O)cc2)cc1` yielded a Ki of 18 nM.

These data come from ChEMBL document CHEMBL3232796, “Synthesis and carbonic anhydrase I, II, IX and XII inhibition studies of 4-N,N-disubstituted sulfanilamides incorporating 4,4,4-trifluoro-3-oxo-but-1-enyl, phenacylthiourea and imidazol-2(3H)-one/thione moieties” (Bioorg Med Chem Lett, 2014).
